The target in assay [1] is T1, hTAS1R2 + hTAS1R3 R723A^5.36 (Homo sapiens, UniProt Q7RTX0+Q8TE23, R723A).
T1 construct: expressed in transfected cells; host or cells: HEK293T cells stably expressing G16Gust44
T1 sequence (Q8TE23 20-839): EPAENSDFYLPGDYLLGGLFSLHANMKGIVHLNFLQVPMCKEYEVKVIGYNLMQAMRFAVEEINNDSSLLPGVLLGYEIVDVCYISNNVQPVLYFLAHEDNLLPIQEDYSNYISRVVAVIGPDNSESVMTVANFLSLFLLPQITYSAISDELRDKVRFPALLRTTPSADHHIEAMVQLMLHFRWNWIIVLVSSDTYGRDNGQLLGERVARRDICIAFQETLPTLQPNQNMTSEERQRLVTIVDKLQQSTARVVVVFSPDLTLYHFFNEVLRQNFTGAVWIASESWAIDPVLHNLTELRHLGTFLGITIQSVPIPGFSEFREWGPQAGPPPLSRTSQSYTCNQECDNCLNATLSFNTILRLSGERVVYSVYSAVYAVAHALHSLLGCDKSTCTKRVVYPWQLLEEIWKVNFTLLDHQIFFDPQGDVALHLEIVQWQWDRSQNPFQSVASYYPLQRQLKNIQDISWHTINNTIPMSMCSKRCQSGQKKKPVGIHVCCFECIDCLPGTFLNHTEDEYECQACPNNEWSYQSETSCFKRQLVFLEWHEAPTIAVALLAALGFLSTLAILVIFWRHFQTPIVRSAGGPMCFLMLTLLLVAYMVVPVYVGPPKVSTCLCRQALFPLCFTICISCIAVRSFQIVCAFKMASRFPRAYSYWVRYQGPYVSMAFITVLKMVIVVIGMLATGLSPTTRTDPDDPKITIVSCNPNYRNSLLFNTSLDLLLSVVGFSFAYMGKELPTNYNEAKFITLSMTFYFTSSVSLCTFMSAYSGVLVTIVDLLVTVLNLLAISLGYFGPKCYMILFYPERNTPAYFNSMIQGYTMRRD
T1 sequence (Q7RTX0 21-852 R723A): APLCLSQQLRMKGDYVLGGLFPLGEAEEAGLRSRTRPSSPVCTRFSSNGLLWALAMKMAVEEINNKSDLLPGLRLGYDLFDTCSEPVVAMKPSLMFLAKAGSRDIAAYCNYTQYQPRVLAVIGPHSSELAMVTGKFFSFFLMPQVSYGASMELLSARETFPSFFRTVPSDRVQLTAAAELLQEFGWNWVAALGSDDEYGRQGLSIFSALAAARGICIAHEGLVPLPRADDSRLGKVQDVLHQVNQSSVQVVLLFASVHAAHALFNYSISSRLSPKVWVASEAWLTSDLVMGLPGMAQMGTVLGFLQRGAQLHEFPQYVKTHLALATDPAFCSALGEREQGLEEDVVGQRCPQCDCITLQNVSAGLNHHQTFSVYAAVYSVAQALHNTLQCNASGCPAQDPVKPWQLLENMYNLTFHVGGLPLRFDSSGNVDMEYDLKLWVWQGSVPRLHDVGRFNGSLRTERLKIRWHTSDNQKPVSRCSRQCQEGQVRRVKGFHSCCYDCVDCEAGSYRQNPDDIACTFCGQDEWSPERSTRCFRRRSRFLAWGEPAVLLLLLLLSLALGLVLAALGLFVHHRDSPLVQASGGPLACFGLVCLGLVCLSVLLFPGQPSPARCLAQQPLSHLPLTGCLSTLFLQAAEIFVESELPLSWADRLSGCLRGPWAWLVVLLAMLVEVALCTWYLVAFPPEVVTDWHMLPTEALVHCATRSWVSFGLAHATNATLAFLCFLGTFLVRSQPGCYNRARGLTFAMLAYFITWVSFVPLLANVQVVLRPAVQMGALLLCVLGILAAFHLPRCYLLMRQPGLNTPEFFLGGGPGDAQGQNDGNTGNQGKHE
Kind of assay: Calcium response (FLIPR), hTAS1R3 mutant coexpressed with hTAS1R2. It counts as cell-based. Conditions: variant R723A^5.36; for Emax: read-out: maximal signal (% of wt). The essentials:
(§1)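 HEK293T cells stably expressing chimeric G16Gust44 were transiently transfected with C-terminally HSV-tagged hTAS1R2 and mutant hTAS1R3, then loaded 24 h later with Fluo4-AM for 1 h. Calcium mobilization after sweet-tastant application was read by FLIPR, mock-corrected and expressed as ΔF/F.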

For assay [2], the target named is T2, hTAS1R2 + hTAS1R3 G804A^7.42 (Homo sapiens, UniProt Q7RTX0+Q8TE23, G804A).
T2 construct: expressed in transfected cells; host or cells: HEK293T cells stably expressing G16Gust44
T2 sequence (Q7RTX0 21-852 G804A): T1 sequence (Q7RTX0 21-852 R723A) with A703R, G784A
T2 sequence (Q8TE23 20-839): T1 sequence (Q8TE23 20-839)
The description is as above. It counts as cell-based. Particulars: variant G804A^7.42; for Emax: read-out: maximal signal (% of wt). A digest of the protocol:
as §1

Residue numbers refer to the chain shown, from its start. Where a SMILES comes first, the peptide text is derived from it.

As to `COc1ccc(CCC(=O)c2c(O)cc(O[C@@H]3O[C@H](CO)[C@@H](O)[C@H](O)[C@H]3O[C@@H]3O[C@@H](C)[C@H](O)[C@@H](O)[C@H]3O)cc2O)cc1O` [NHDC, neohesperidin dihydrochalcone], the EC50 worked out at 200 ± 100 µM in assay [1] and 1.3 ± 0.5 mM in assay [2]. Moreover, the values for the Emax in assay [1] and in assay [2] were 69 ± 71% and 53 ± 10%, respectively.
Taken in the same sequence, the figures for `COC(=O)[C@H](Cc1ccccc1)NC(=O)[C@@H](N)CC(=O)O` [aspartame] (HELM PEPTIDE1{D.F.[CO[*:1]]}$$$$V2.0) were 1500 ± 500 µM, 1.6 ± 0.2 mM, 68 ± 50% and 44 ± 1%.

The values are drawn from PMC2099433, “The binding site for neohesperidin dihydrochalcone at the human sweet taste receptor” (BMC Structural Biology, 2007).
